The source of these data is PubChem BioAssay AID2483 (Sanford-Burnham Center for Chemical Genomics, 2010).

Calls of active or inactive are those of the source. The rule behind the calls is not given here. A value given as a limit tells only on which side of the number the result lay.

This assay relates to TNFa-induced NF-kB reporter inhibition, human cells. Briefly: analog potency on TNFa NF-kB signaling – cell-based, set 2, SAR follow-up (AID 2483).
The term IC50 denotes the concentration that inhibits the measured activity by half. Consider `CCCCn1c(SCC(=O)Nc2nnc(CC)s2)nc2c1c(=O)n(C)c(=O)n2C`, for which the IC50 is 13.1 µM.

For the molecule `CCCCn1c(SCC(=O)c2ccccc2)nc2c1c(=O)[nH]c(=O)n2C`, the IC50 was > 20 µM (inactive).

As to `CC(C)Sc1nc2c(c(=O)[nH]c(=O)n2C)n1Cc1ccccc1`, the IC50 was > 20 µM (inactive).

As for `CCC(=O)Nc1nc2ccccc2n1Cc1ccccc1Cl`, the IC50 is 16.9 µM.

In the case of `Cc1ccc(S(=O)(=O)n2c(N)nc3ccccc32)cc1`, the IC50 is > 20 µM (inactive).

Consider `CCCn1c(SCC(=O)Nc2nc3c(s2)CCCC3)nc2c1c(=O)n(C)c(=O)n2C`, for which the half-maximal inhibitory concentration (IC50) is 3.31 µM.

In the case of `CCCCn1c(CN2CCN(c3cccc(Cl)c3)CC2)nc2c1c(=O)n(C)c(=O)n2C`, the IC50 was 5.69 µM.

Turning to `CCCn1c(SCCc2ccccc2)nc2c1c(=O)[nH]c(=O)n2C`, the IC50 was > 20 µM (inactive).

Take `O=C(Nc1nc2ccccc2n1Cc1ccc(Cl)cc1)c1ccco1`: the IC50 is > 20 µM (inactive).

With `C/C=C/Cn1c(SCc2ccc(Cl)cc2)nc2c1c(=O)[nH]c(=O)n2C`, the IC50 is > 20 µM (inactive).

With `C=CCn1c(SCCCc2ccccc2)nc2c1c(=O)[nH]c(=O)n2C`, the IC50 is 16.8 µM.

For the molecule `Cn1c(=O)[nH]c(=O)c2c1nc([N+](=O)[O-])n2Cc1ccccc1`, the IC50 was 1.32 µM.

As for `CCCCCn1c(SCCc2ccccc2)nc2c1c(=O)[nH]c(=O)n2C`, the IC50 was > 20 µM (inactive).

Consider `COCCn1c(SCCCc2ccccc2)nc2c1c(=O)[nH]c(=O)n2C`, for which the IC50 is > 20 µM (inactive).

Regarding `C/C=C/Cn1c(SCCCc2ccccc2)nc2c1c(=O)[nH]c(=O)n2C`, the IC50 was 8.49 µM.

Regarding `CC(C)n1c(SCCCc2ccccc2)nc2c1c(=O)[nH]c(=O)n2C`, the IC50 was > 20 µM (inactive).

With `C/C(Cl)=C\Cn1c(NCCc2ccccc2)nc2c1c(=O)n(C)c(=O)n2C`, the IC50 was 5.21 µM.

Consider `C/C=C/Cn1c(SCc2ccccc2)nc2c1c(=O)[nH]c(=O)n2C`, for which the IC50 was > 20 µM (inactive).
